Reference: patent US20060024699A1, “Method for evaluating a substance capable of effecting on endoplasmic reticulum stress-and/or amyloid beta-induced apoptosis” (priority 2004, published 2006)

Experiments:
Format in all cases: cell-based, human
pro-caspase-4 = experiment: Cleavage of pro-caspase-4 in SK-N-SH cells treated with apoptosis inducers (Western blotting); details: tunicamycin 1 μg/ml, thapsigargin 0.5 μM, etoposide 100 μM for 16 or 24 hours, staurosporine 0.1 μM for 8 hours
Method: SK-N-SH cells were treated with various kinds of apoptosis inducers such as tunicamycin (manufactured by SIGMA), thapsigargin (manufactured by SIGMA), etoposide (manufactured by SIGMA), staurosporine (manufactured by SIGMA), UV and the like, to evaluate change in caspase-4. Specifically, SK-N-SH cells were treated either with exposure to an endoplasmic reticulum stress inducer, tunicamycin (1 μg/ml) or thapsigargin (0.5 μM), exposure to a non-endoplasmic reticulum stress inducer, etoposide (100 μM) or staurosporine (0.1 μM), or irradiated with 150 J/m2 UV, in α-MEM (manufactured by Invitrogen) containing 10% by weight of fetal bovine serum, at 37° C. under 5% by volume of CO2. Here, the exposures to tunicamycin, thapsigargin and etoposide were 16 or 24 hours, exposure to staurosporine was 8 hours, and UV irradiation was 8 hours.
(§1) Thereafter, the cells obtained were washed with phosphate buffered saline, and then harvested. The resulting cells were lysed in TNE buffer (composition: 10 mM Tris-HCl, pH 7.8, 1 mM EDTA, 150 mM NaCl, 1 mM phenylmethylsulphonyl fluoride) containing 0.5% by weight of NP-40 (trade name: Nonidet P-40), to give a cell extract. Equal amount of a cell extract (corresponding to 15 μg of protein) was subjected to 12% by weight SDS-PAGE. After the SDS-PAGE, proteins on the gel were transferred to a PVDF membrane (manufactured by Millipore). The membrane was blocked with 5% by weight of bovine serum albumin (BSA). The resulting membrane was incubated with a primary antibody (anti-caspase-4 antibody, anti-caspase-3 antibody, anti-caspase-7 antibody or anti-β-actin antibody), and thereafter incubated with a horseradish peroxidase (HRP)-conjugated secondary antibody. Thereafter, caspase-4, caspase-3, caspase-7 or β-actin was detected with trade name: ECL detection system (manufactured by Amersham-Pharmacia).

SK-N-SH cells = experiment: Thapsigargin-induced cell death assessed by morphological changes in SK-N-SH cells; details: untransfected SK-N-SH cells; 0.5 μM thapsigargin for 40 hours
Method: In the same manner as described above, cellular morphological changes of SK-N-SH cells treated with various apoptosis inducers were evaluated by phase contrast microscopy. SK-N-SH cells treated in the same manner were stained with 10 μM Hoechst 33342. Nuclear morphological changes of stained cells were evaluated by fluorescence microscopy. Cell death was detected by using as an index cellular morphological changes and nuclear morphological changes. At least 500 cells were counted. The data was expressed as the mean ±SEM from three independent experiments and P values were calculated by Student's t-test.
SK-N-SH cell was transfected at 50% of confluence with 1.0 μg of the siRNA in 24-well plastic plates (manufactured by Nunc) containing αMEM (manufactured by Invitrogen) containing 10% by weight of fetal bovine serum, at 37° C. under 5% by volume of CO2, using trade name: Oligofectamine (manufactured by Invitrogen) according to the manufacturer's protocol. Transfected SK-N-SH cells were incubated at 37° C. for 60 hours without changing the medium.
In addition, SK-N-SH cells after the culturing were incubated in αMEM (manufactured by Invitrogen) containing 10% by weight of fetal bovine serum at 37° C. under 5% by volume of CO2, with or without 0.5 μM thapsigargin for 40 hours. […] Caspase-4 or β-actin was then detected with an ECL detection system (manufactured by Amersham-Pharmacia). […]

caspase-4 = experiment: Cleavage of caspase-4 in SK-N-SH cells treated with amyloid-β peptides (Western blotting); details: 25 μM Aβ25-35, 5 μM Aβ1-40, 25 μM Aβ35-25, 5 M Aβ40-1
Method: as §1, with “Amersham-Pharmacia). […]” for “Amersham-Pharmacia).”
SK-N-SH cells were incubated in α-MEM (manufactured by Invitrogen) containing 10% by weight of fetal bovine serum, at 37° C. under 5% by volume of CO2, with 25 μM Aβ25-35, 5 μM Aβ1-40, 25 μM Aβ35-25, or 5 M Aβ40-1. Caspase-4, caspase-7 or β-actin in the cell extract was then detected in the same manner as described above.

HeLa cell = experiment: Nuclear morphological changes (Hoechst33342) after tunicamycin in vector-transfected HeLa cells; details: tunicamycin 1 μg/ml for 30 hours
Method: (§2) SK-N-SH cells were stably transfected with pCAGGS-hBcl-2 (Iwahashi, H. et al., Nature, 390, 413-417 (1997), all teachings of which are incorporated herein by reference) by a conventional method. The resulting cells were then cultured in αMEM (manufactured by Invitrogen) containing 10% by weight of fetal bovine serum, at 37° C. under 5% by volume of CO2 to overexpress Bcl-2. Similarly, HeLa cells were stably transfected with pCAGGS-hBcl-2. The resulting cells were then cultured in DMEM (manufactured by Invitrogen) containing 10% by weight of fetal bovine serum, at 37° C. under 5% by volume of CO2 for 48 hours to overexpress Bcl-2. Here, SK-N-SH cells and HeLa cells were stably transfected with trade name: pCAGGS (Hitoshi Niwa et al., Gene, 108, 193-200 (1991), all teachings of which are incorporated herein by reference) as controls, in the same manner as described above, respectively.
(§3) In addition, each of the transfectants was treated with tunicamycin (1 μg/ml) for 30 hours, stained with Hoechst33342, and observed by fluorescence microscopy.

SK-N-SH cell = experiment: Nuclear morphological changes (Hoechst33342) after tunicamycin in vector-transfected SK-N-SH cells; details: tunicamycin 1 μg/ml for 30 hours
Method: as §2, §3

Compound | cleavage of pro-caspase-4 (pro-caspase-4) | cleavage of caspase-4 (caspase-4) | further results
COc1cc([C@@H]2c3cc4c(cc3[C@@H](O[C@@H]3O[C@@H]5CO[C@@H](C)O[C@H]5[C@H](O)[C@H]3O)[C@H]3COC(=O)[C@H]23)OCO4)cc(OC)c1O [etoposide] | not cleaved | – | –
CN[C@@H]1C[C@H]2O[C@@](C)([C@@H]1OC)n1c3ccccc3c3c4c(c5c6ccccc6n2c5c31)C(=O)NC4 [staurosporine] | not cleaved | – | –
C/C=C(/C)C(=O)O[C@H]1C(C)=C2[C@H]([C@@H]1OC(=O)CCCCCCC)[C@@](C)(OC(C)=O)C[C@H](OC(=O)CCC)[C@@]1(O)[C@H]2OC(=O)[C@@]1(C)O [thapsigargin] | induced the cleavage of pro-caspase-4 | – | cells resulting in death (SK-N-SH cells): about 60%
Aβ1-40: amyloid-β peptide 1-40 | – | cleavage of caspase-4 was observed | –
Aβ25-35: partial peptide of amyloid-β (GSNKGAIIGLM; Amyloid-beta protein 40; UniProt P05067 696-706, looked up, fragment) | – | cleavage of caspase-4 was observed | –
tunicamycin | induced the cleavage of pro-caspase-4 | – | apoptotic nuclear morphological changes (HeLa cell): apoptotic nuclear morphological changes were induced; apoptotic nuclear morphological changes (SK-N-SH cell): apoptotic nuclear morphological changes were induced
